{"source": "patent US8354430B2", "about": "“Monohydrochloride salt of 1-[3-[3-(4-chlorophenyl) propoxy]propyl]-piperidine” (priority 2005, dated 2013)", "key": {"Mouse Brain native H3R": {"target": "T1, Mouse Brain native H3R (Mus musculus, UniProt P58406)", "T1 construct": "was performed on mouse brain cortex membranes; from tissue; host or cells: mouse brain cortex membranes", "T1 sequence (P58406 whole entry)": "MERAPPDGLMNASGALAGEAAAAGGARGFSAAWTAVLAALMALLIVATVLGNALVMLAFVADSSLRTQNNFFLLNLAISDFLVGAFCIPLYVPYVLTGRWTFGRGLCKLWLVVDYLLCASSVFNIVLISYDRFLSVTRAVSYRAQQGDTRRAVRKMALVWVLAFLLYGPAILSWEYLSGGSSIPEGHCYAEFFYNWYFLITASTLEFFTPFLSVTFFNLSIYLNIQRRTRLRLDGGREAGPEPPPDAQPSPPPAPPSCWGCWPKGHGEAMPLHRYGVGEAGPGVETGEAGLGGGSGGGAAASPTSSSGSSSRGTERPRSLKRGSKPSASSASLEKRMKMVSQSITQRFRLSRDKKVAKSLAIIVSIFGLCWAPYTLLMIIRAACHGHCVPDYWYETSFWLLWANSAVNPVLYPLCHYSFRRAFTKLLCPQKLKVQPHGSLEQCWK", "assay": "Histamine H3 receptor binding, mouse brain cortex membranes"}, "Human H1R [1]": {"target": "T2, Human H1R (Homo sapiens, UniProt P35367)", "T2 sequence (P35367 whole entry)": "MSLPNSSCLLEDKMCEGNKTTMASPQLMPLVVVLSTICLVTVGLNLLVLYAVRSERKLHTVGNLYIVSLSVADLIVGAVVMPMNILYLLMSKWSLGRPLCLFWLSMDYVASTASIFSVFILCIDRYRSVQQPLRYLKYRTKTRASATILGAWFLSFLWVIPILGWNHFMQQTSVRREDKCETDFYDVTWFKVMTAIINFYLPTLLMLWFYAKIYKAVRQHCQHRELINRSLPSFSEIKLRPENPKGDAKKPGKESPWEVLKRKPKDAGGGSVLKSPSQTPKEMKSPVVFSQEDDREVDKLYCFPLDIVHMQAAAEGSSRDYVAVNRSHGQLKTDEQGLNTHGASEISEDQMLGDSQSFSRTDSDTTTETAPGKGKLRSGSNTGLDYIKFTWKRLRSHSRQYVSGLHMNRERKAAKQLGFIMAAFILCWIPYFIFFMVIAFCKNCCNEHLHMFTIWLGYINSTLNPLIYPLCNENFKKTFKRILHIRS", "assay": "Specific [3H]mepyramine binding at recombinant human H1 receptors expressed in HEK293 cells", "settings": "read-out: Ki or IC50, Human H1R"}, "Human H1R [2]": {"target": "T2, Human H1R", "assay": "Histamine-induced increase in [35S]GTPγS binding", "assay_type": "biochemical", "settings": "read-out: Ki or IC50, [35S]GTPγS"}, "H2R": {"target": "H2R (Cavia porcellus, UniProt P47747)", "sequence (P47747 whole entry)": "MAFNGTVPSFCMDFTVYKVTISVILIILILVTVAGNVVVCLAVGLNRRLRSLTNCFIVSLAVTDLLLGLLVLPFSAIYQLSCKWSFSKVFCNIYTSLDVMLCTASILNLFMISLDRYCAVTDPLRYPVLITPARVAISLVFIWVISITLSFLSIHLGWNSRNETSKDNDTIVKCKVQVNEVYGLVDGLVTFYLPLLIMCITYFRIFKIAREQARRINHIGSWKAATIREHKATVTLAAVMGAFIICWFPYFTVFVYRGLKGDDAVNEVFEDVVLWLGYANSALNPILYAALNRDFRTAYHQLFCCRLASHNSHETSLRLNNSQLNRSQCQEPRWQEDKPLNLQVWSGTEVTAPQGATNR", "assay": "[125I]iodoaminopotentidine binding assay to the guinea pig H2 receptor", "settings": "read-out: Ki or IC50, H2R"}, "GAERS rats": {"test_system": "GAERS rats", "assay": "Absence epilepsy in GAERS rat", "assay_type": "in vivo", "description": "A strain of Wistar rats with spontaneously generalized non convulsive seizures (absence seizures) has been developed in Strasbourg (Genetic Absence Epilepsy Rats of Strasbourg or GAERS). Seizures are characterized by bilateral and synchronous spike-and-wave discharges (7-9 Hz) on EEG, concomitant with behavioral arrests. These discharges generally last about 20 sec and occur spontaneously every minute when the animals are in a state of quiet wakefulness. Pharmacological reactivity of this model is similar to human absence-epilepsy (e.g., valproate and ethosuccimide are protective). After a recovery period, implanted rats (cortical and hippocampal EEG electrodes) were recorded over a 20 min reference period. […] Rats received the alternative treatment one week later. Cumulated duration of absence-seizures was measured by 20 min periods during the two sessions. Fast Fourier transform analysis of EEG recording allowed detection of any rhythm change during both ictal and inter-ictal periods (background activity)."}, "mice [3]": {"test_system": "mice", "assay": "Electroshock in mice (maximal electroshock seizure model)", "assay_type": "in vivo, mouse", "settings": "100 mg/kg, p.o.; test 60 min after dosing"}, "mice [4]": {"test_system": "mice", "assay": "Sleep-wake cycle study in mice (EEG/EMG)", "assay_type": "in vivo, mouse", "description": "Animals were chronically implanted with cortical and muscle electrodes to record EEG and EMG respectively, to allow monitoring their sleep-wake cycle. After recovery from surgery, animals were housed individually in a sound-proof recorded room maintaining at appropriate ambient temperature on a 12 h light/dark cycle. Polygraphic recordings were performed during 4 days to collect reference qualitative and quantitative data of sleep-wake control in each individual. Then, pharmacological evaluation was performed over 24 h sessions and analyzed by successive 30 sec epochs. Wakefulness and sleep states were identified as previously described for cats [Petitjean et al., Brain Res., 1975, 88: 439-53] and mice [Valatx and Bugat, Brain Res., 1974, 69: 315-30].\nPolygraphic recordings were started 15 days after surgery (5 days recovery plus 10 days acclimation to the recording wires). Sleep-wake recording criteria included wakefulness (W), slow wave sleep (SWS) and paradoxical sleep (PS). Spectral analysis of EEG was performed by Fast-Fourier Transform in the 0.8-2.5 Hz, 8-15 Hz and 30-60 Hz frequency bands."}, "mice [5]": {"test_system": "mice", "assay": "Scopolamine-induced learning deficit, two-trial object recognition", "assay_type": "in vivo, mouse", "settings": "i.p., scopolamine 0.3 mg/kg i.p.", "description": "Lett., 1994, 170, 117-120; Bartolini et al., Biochem. Nehav., 1996, 53, 277-283]. Methods: Mice were allowed to explore a box for 30 min in the presence of two objects. The day after, mice were submitted to two trials spaced by an interval of 60 min. During the first trial (T1), mice were placed in the box containing the two identical objects and the time required by each animal to complete 20 sec of object exploration was determined. Exploration was considered to be directing the nose at a distance closer than 2 cm to the object and/or touching the object. For the second trial (T2), one of the objects presented in the first trial was replaced by and unknown novel object. Mice were placed in the box for 5 min and exploration of each object together with motor activity was determined. The following parameters were measured."}, "[6]": {"assay": "Genotoxicity in vitro or in vivo"}, "epileptic patients": {"test_system": "epileptic patients", "assay": "Photo paroxysmal response (PPR) to intermittent photic stimulation in photosensitive epileptic patients, single-blind single dose", "assay_type": "in vivo, human", "settings": "for Delay of apparition / Duration of effect / Suppression of PPR: individual patients", "description": "Acta Neurol. […] Unlike most other epilepsies, photosensitive epilepsy is a reflex epilepsy and epileptiform discharges can be evoked at any time by IPS in the laboratory. By determination of both upper and lower sensitivity limits (frequencies per flash) a so-called photosensitivity range can be determined. The range is related to liability of seizures in daily life of the patient. This photosensitivity range is relatively stable within a patient and can be diminished or abolished by antiepileptic medication. […] Twelve patients have been enrolled. Four patients received the dose of 20 mg. […] Four patients received the dose of 40 mg."}, "human H3R [7]": {"target": "T3, human H3R (Homo sapiens, UniProt Q9Y5N1)", "T3 sequence (Q9Y5N1 whole entry)": "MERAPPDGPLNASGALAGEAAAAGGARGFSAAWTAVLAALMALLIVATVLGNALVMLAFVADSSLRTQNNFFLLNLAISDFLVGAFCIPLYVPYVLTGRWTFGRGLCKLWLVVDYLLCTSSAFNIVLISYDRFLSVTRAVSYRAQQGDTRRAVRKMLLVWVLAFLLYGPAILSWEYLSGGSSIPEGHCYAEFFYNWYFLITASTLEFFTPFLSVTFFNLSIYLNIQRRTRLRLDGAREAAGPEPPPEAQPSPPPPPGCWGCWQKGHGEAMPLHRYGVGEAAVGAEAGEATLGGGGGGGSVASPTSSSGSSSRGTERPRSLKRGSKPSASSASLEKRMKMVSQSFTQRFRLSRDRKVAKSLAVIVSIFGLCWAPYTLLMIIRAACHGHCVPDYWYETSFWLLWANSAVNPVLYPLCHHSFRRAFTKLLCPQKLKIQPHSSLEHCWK", "assay": "A23187-evoked [3H]arachidonic acid release from CHO cells expressing human H3R", "assay_type": "cell-based", "parameters": "expressed in transfected cells; host or cells: CHO cells", "settings": "1 μM, human H3R 300-400 fmol/mg protein"}, "human H3R [8]": {"target": "T3, human H3R", "assay": "Histamine H3 receptor binding, recombinant human H3R expressed in rat glioma C6 cells", "parameters": "expressed in transfected cells; host or cells: various mammalian cells (the earlier reading names rat glioma C6)"}, "[9]": {"settings": "40 mg single dose, monohydrochloride"}, "[10]": {"settings": "60 mg single dose, monohydrochloride"}}, "note": "Several values for one entry are separate records, joined by “and”; a condition that tells them apart may be missing. Identical values can stand only once. Entries after “also recorded” stand apart in the source; their conditions may differ."}
{"molecule": "Cl.Clc1ccc(CCCOCCCN2CCCCC2)cc1", "note": "[1-[3-[3-(4-chlorophenyl)propoxy]propyl]-piperidine monohydrochloride]", "values": [{"measurement": "Ki", "setting": "Mouse Brain native H3R; radioligand [3H](R)α-MeHA", "result": "5.7 ± 0.2", "unit": "nM"}, {"measurement": "Ki", "setting": "Mouse Brain native H3R; radioligand [125I]iodoproxyfan", "result": "14 ± 0.1", "unit": "nM"}, {"measurement": "Ki", "setting": "Human H1R [1]", "result": 1.14, "unit": "µM"}, {"measurement": "IC50", "setting": "Human H1R [2]", "result": "> 10", "unit": "µM"}, {"measurement": "Ki", "setting": "H2R", "result": "~5", "unit": "µM"}, {"measurement": "reduction of cumulated duration of spike-and-wave discharges vs. saline", "setting": "GAERS rats; 5 mg/kg, i.p.", "result": 25, "unit": "%"}, {"measurement": "reduction of cumulated duration of spike-and-wave discharges vs. saline", "setting": "GAERS rats; 20 mg/kg, i.p.", "result": 77, "unit": "%"}, {"measurement": "number and cumulated durations of spike and wave discharges", "setting": "GAERS rats; 20 mg/kg, i.p., 20, 40 and 60 min after administration", "result": "significantly decreased"}, {"measurement": "EEG background activity (spectral analysis of inter-ictal periods)", "setting": "GAERS rats; epilepsy models", "result": "not associated with significant change in EEG background activity"}, {"measurement": "protection in the maximal electroshock seizure model", "setting": "mice [3]", "result": "complete protection"}, {"measurement": "increase in W duration", "setting": "mice [4]; 10 mg/kg oral", "result": 29, "unit": "%"}, {"measurement": "increase in W duration", "setting": "mice [4]; 20 mg/kg oral", "result": 69, "unit": "%"}, {"measurement": "behavioral change in treated mice", "setting": "mice [4]; oral", "result": "No behavioral change"}, {"measurement": "awakening (W) at the expense of SWS and PS", "setting": "mice [4]; oral, 2.5, 5, 10 or 20 mg/kg", "result": "dose-dependent increase in awakening"}, {"measurement": "reversal of scopolamine-induced amnesia", "setting": "mice [5]; 5 mg/kg", "result": "a reversal trend appeared without being significant"}, {"measurement": "reversal of scopolamine-induced amnesia", "setting": "mice [5]; 15 mg/kg", "result": "significantly (p=0.0056) reversed"}, {"measurement": "genotoxicity", "setting": "[6]", "result": "not to be genotoxic in vitro or in vivo"}, {"measurement": "Delay of apparition", "setting": "epileptic patients; 20 mg single dose", "result": 2, "unit": "h"}, {"measurement": "Duration of effect", "setting": "epileptic patients; 20 mg single dose", "result": 6, "unit": "h"}, {"measurement": "Suppression of PPR", "setting": "epileptic patients; 20 mg single dose, monohydrochloride", "result": "No (3×) and Total"}, {"measurement": "Delay of apparition", "setting": "epileptic patients; [9]", "result": "<1 hour hours and 2 hours"}, {"measurement": "Duration of effect", "setting": "epileptic patients; [9]", "result": ">8 h and 26 h"}, {"measurement": "Suppression of PPR", "setting": "epileptic patients; [9]", "result": "No (2×) and Total and Partial"}, {"measurement": "Delay of apparition", "setting": "epileptic patients; [10]", "result": "2 hours and <1 hour hours (3×)"}, {"measurement": "Duration of effect", "setting": "epileptic patients; [10]", "result": ">8 hours (2×) and >36 hours and 26 hours"}, {"measurement": "Suppression of PPR", "setting": "epileptic patients; [10]", "result": "Partial; also recorded: Total"}, {"measurement": "clinical response", "setting": "epileptic patients; 60 mg, four patients", "result": "clinical response in all four patients"}, {"measurement": "appearance of effect post administration", "setting": "epileptic patients; 20-60 mg, overall", "result": "1 to 2", "unit": "h"}, {"measurement": "solubility", "setting": "physchem; pH 4.5, aqueous buffer", "result": "> 1000", "unit": "mg/mL"}, {"measurement": "solubility", "setting": "physchem; pH 7.4, aqueous buffer", "result": "> 1000", "unit": "mg/mL"}, {"measurement": "solubility", "setting": "physchem; water", "result": "> 1000", "unit": "mg/mL"}, {"measurement": "reduction of the A23187-evoked [3H]AA release", "setting": "human H3R [7]", "result": 20, "unit": "%"}, {"measurement": "difference between the affinity at H3R and at other histamine receptors", "setting": "human H3R [8]", "result": "three orders of magnitude"}, {"measurement": "potency at the human H3R as compared to the mouse H3R", "setting": "human H3R [8]; same test system", "result": "about 6 times"}]}
